# Experiments:
# [1] = molecular target: RAC-gamma serine/threonine-protein kinase (Homo sapiens) (UniProt Q9Y243); test: Inhibition of wild-type human partial length AKT3 expressed in bacterial expression system at 1 uM by Kinomescan method relative to control
# [2] = molecular target: Protein-tyrosine kinase 6 (Homo sapiens) (UniProt Q13882); test: Inhibition of wild-type human partial length BRK (L166 to T451 residues) expressed in bacterial expression system at 1 uM by Kinomescan method relative to control
# [3] = molecular target: Cyclin-dependent kinase-like 1 (Homo sapiens) (UniProt Q00532); test: Inhibition of wild-type human full length CDKL1 (M1 to I358 residues) expressed in mammalian expression system at 1 uM by Kinomescan method relative to control
# Cyclin-dependent kinase-like 1 (Homo sapiens), sequence (Q00532 whole entry, the tested form may be a part): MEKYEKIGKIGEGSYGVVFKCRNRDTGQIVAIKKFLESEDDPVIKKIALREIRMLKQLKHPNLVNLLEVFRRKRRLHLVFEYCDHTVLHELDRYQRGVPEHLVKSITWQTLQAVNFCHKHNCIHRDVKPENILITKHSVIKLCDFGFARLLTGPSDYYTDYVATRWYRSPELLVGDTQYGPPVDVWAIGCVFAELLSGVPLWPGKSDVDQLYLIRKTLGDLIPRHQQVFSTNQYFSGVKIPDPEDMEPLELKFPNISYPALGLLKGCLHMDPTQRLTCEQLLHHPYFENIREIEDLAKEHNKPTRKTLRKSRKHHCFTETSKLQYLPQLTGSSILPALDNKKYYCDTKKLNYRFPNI
# [4] = molecular target: Myotonin-protein kinase (Homo sapiens) (UniProt Q09013); test: Inhibition of wild-type human partial length DMPK (V47 to V415 residues) expressed in bacterial expression system at 1 uM by Kinomescan method relative to control
# [5] = tested on: Epidermal growth factor receptor (Homo sapiens), P00533 [G719C]; test: Inhibition of human partial length EGFR G719C mutant (R669 to V1011 residues) expressed in bacterial expression system at 1 uM by Kinomescan method relative to control
# [6] = molecular target: Ephrin type-A receptor 8 (Homo sapiens) (UniProt P29322); test: Inhibition of wild-type human partial length EPHA8 (Q608 to C920 residues) expressed in bacterial expression system at 1 uM by Kinomescan method relative to control
# [7] = molecular target: Mitogen-activated protein kinase 7 (Homo sapiens) (UniProt Q13164); test: Inhibition of wild-type human partial length ERK5 (M1 to A409 residues) expressed in bacterial expression system at 1 uM by Kinomescan method relative to control
# [8] = tested on: Receptor-type tyrosine-protein kinase FLT3 (Homo sapiens), P36888 [UNDEFINED MUTATION]; test: Inhibition of human partial length FLT3 ITD/F691L double mutant expressed in bacterial expression system at 1 uM by Kinomescan method relative to control
# Receptor-type tyrosine-protein kinase FLT3 (Homo sapiens), P36888 [UNDEFINED MUTATION], sequence (P36888 whole entry, looked up, stated change not applied, the tested form may be a part): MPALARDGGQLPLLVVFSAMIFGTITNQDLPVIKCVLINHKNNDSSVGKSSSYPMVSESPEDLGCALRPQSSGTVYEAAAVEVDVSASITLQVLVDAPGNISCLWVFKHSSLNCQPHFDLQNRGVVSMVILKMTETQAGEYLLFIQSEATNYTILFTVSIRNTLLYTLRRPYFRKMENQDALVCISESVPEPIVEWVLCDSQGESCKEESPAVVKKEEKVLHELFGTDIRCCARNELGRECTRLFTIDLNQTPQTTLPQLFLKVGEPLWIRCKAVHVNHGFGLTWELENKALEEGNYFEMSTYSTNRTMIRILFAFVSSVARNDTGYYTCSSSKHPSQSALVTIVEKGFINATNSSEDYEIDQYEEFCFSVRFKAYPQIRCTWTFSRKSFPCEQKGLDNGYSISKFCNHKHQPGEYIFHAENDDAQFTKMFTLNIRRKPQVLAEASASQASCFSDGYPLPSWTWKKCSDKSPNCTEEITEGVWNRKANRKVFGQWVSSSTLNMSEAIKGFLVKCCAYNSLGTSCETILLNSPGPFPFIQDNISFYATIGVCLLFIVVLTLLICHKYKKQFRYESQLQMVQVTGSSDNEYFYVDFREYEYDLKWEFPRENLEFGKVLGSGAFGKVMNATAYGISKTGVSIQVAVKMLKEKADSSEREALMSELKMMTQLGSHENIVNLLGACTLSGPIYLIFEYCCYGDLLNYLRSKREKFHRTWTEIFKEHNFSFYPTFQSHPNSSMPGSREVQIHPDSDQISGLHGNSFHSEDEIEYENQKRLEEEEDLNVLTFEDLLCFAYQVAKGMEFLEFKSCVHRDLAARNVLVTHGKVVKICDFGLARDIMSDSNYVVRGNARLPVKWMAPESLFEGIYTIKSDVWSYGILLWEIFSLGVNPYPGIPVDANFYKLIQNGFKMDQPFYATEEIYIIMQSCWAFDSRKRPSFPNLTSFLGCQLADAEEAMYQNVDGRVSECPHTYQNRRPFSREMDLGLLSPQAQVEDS
# [9] = molecular target: Inhibitor of nuclear factor kappa-B kinase subunit epsilon (Homo sapiens) (UniProt Q14164); test: Inhibition of wild-type human full length IKK-epsilon (M1 to V716 residues) expressed in mammalian expression system at 1 uM by Kinomescan method relative to control
# [10] = tested on: Mast/stem cell growth factor receptor Kit (Homo sapiens), P10721 [V559D]; test: Inhibition of human partial length KIT V559D mutant (Y545 to D952 residues) expressed in bacterial expression system at 1 uM by Kinomescan method relative to control
# [11] = molecular target: Serine/threonine-protein kinase LATS2 (Homo sapiens) (UniProt Q9NRM7); test: Inhibition of wild-type human partial length LATS2 (Q641 to V1088 residues) expressed in mammalian expression system at 1 uM by Kinomescan method relative to control
# [12] = molecular target: Mitogen-activated protein kinase kinase kinase 9 (Homo sapiens) (UniProt P80192); test: Inhibition of wild-type human partial length MLK1 (V88 to W426 residues) expressed in bacterial expression system at 1 uM by Kinomescan method relative to control
# Mitogen-activated protein kinase kinase kinase 9 (Homo sapiens), sequence (P80192 whole entry, looked up, the tested form may be a part): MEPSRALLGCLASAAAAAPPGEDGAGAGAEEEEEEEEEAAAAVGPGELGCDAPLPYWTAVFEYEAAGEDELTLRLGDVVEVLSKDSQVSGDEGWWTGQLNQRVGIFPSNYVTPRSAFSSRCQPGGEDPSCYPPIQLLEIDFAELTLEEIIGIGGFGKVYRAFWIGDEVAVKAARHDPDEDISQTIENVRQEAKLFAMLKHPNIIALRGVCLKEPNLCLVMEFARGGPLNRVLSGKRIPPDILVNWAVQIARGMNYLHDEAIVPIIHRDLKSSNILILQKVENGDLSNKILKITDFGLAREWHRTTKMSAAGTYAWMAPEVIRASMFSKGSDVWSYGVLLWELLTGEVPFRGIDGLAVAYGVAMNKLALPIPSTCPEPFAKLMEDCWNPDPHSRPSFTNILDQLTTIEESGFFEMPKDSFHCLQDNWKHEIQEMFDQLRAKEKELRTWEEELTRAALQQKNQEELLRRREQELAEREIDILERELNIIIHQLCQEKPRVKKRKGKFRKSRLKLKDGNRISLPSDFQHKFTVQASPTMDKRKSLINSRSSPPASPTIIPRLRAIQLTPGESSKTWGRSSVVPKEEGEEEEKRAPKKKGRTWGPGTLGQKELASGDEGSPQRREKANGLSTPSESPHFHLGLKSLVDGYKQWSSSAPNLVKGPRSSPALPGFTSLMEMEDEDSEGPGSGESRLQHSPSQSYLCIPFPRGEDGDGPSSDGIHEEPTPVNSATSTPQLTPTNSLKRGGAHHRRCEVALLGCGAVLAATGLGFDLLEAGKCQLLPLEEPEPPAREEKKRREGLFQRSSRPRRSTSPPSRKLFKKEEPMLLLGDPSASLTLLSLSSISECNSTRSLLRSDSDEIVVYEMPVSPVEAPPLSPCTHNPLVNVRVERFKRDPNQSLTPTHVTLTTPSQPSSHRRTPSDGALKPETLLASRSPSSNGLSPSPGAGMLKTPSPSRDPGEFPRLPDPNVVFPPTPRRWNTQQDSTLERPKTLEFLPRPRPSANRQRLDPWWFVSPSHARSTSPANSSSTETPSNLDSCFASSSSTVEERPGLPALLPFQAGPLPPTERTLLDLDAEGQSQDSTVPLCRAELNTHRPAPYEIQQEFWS
# [13] = molecular target: Proto-oncogene tyrosine-protein kinase Src (Homo sapiens) (UniProt P12931); test: Inhibition of wild-type human partial length SRC (L240 to L536 residues) expressed in bacterial expression system at 1 uM by Kinomescan method relative to control
# [14] = molecular target: STE20/SPS1-related proline-alanine-rich protein kinase (Homo sapiens) (UniProt Q9UEW8); test: Inhibition of wild-type human partial length STK39 (P43 to I357 residues) expressed in mammalian expression system at 1 uM by Kinomescan method relative to control
# [15] = molecular target: Calcium/calmodulin-dependent protein kinase kinase 1 (Homo sapiens) (UniProt Q8N5S9); test: Inhibition of wild-type human partial length CAMKK1 (R65 to E414 residues) expressed in bacterial expression system at 10 uM by Kinomescan method relative to control
# [16] = molecular target: Cyclin-dependent kinase 11B (Homo sapiens) (UniProt P21127); test: Inhibition of wild-type human partial length CDC2L1 (P353 to G692 residues) expressed in bacterial expression system at 10 uM by Kinomescan method relative to control
# [17] = tested on: Epidermal growth factor receptor (Homo sapiens), P00533 [L858R,T790M]; test: Inhibition of human partial length EGFR L858R/T790M double mutant (R669 to V1011 residues) expressed in mammalian expression system at 10 uM by Kinomescan method relative to control
# Epidermal growth factor receptor (Homo sapiens), P00533 [L858R,T790M], sequence (P00533 whole entry T790M/L858R, looked up, the tested form may be a part): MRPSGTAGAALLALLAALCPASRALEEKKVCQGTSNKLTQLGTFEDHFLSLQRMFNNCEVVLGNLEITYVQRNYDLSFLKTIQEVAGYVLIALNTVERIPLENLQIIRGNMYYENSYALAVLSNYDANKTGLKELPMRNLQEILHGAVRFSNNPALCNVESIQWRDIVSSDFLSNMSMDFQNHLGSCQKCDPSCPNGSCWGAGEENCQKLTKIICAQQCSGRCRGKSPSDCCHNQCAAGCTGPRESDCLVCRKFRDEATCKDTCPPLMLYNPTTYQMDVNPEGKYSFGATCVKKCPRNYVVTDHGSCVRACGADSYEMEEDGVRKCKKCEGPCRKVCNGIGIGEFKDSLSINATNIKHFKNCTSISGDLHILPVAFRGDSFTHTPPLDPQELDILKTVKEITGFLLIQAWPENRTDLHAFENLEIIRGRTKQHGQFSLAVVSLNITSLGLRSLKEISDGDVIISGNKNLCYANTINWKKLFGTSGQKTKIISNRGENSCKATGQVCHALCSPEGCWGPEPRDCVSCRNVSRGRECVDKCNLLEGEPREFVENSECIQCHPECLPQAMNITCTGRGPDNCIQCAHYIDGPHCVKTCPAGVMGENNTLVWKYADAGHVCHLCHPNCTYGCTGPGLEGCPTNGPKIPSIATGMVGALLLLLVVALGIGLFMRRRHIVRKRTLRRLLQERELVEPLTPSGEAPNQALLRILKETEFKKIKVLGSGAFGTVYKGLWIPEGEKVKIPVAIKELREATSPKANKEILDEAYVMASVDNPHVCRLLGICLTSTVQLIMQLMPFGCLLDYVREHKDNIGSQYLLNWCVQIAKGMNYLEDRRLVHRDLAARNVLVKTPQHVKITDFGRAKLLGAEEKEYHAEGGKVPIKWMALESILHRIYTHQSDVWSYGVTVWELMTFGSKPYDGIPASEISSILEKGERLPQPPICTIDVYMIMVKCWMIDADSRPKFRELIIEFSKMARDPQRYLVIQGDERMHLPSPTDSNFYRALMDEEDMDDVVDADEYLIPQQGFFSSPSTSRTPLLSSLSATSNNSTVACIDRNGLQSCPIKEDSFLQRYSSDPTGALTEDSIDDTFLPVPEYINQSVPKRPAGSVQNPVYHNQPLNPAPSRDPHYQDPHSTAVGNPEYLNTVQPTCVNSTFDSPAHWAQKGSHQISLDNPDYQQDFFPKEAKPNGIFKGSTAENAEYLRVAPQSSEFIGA
# [18] = molecular target: Ephrin type-B receptor 4 (Homo sapiens) (UniProt P54760); test: Inhibition of wild-type human partial length EPHB4 (H585 to G892 residues) expressed in bacterial expression system at 10 uM by Kinomescan method relative to control
# [19] = tested on: Receptor-type tyrosine-protein kinase FLT3 (Homo sapiens), P36888 [UNDEFINED MUTATION]; test: Inhibition of human partial length FLT3 ITD/F691L double mutant expressed in bacterial expression system at 10 uM by Kinomescan method relative to control
# [20] = molecular target: Mitogen-activated protein kinase 14 (Homo sapiens) (UniProt Q16539); test: Inhibition of wild-type human full length p38-alpha (M1 to S360 residues) expressed in bacterial expression system at 10 uM by Kinomescan method relative to control
# [21] = molecular target: Serine/threonine-protein kinase PAK 2 (Homo sapiens) (UniProt Q13177); test: Inhibition of wild-type human partial length PAK2 (P151 to R525 residues) expressed in bacterial expression system at 10 uM by Kinomescan method relative to control
# [22] = tested on: Proto-oncogene tyrosine-protein kinase receptor Ret (Homo sapiens), P07949 [V804L]; test: Inhibition of human partial length RET V804L mutant (E713 to D1014 residues) expressed in bacterial expression system at 10 uM by Kinomescan method relative to control
# Proto-oncogene tyrosine-protein kinase receptor Ret (Homo sapiens), P07949 [V804L], sequence (P07949 whole entry V804L, the tested form may be a part): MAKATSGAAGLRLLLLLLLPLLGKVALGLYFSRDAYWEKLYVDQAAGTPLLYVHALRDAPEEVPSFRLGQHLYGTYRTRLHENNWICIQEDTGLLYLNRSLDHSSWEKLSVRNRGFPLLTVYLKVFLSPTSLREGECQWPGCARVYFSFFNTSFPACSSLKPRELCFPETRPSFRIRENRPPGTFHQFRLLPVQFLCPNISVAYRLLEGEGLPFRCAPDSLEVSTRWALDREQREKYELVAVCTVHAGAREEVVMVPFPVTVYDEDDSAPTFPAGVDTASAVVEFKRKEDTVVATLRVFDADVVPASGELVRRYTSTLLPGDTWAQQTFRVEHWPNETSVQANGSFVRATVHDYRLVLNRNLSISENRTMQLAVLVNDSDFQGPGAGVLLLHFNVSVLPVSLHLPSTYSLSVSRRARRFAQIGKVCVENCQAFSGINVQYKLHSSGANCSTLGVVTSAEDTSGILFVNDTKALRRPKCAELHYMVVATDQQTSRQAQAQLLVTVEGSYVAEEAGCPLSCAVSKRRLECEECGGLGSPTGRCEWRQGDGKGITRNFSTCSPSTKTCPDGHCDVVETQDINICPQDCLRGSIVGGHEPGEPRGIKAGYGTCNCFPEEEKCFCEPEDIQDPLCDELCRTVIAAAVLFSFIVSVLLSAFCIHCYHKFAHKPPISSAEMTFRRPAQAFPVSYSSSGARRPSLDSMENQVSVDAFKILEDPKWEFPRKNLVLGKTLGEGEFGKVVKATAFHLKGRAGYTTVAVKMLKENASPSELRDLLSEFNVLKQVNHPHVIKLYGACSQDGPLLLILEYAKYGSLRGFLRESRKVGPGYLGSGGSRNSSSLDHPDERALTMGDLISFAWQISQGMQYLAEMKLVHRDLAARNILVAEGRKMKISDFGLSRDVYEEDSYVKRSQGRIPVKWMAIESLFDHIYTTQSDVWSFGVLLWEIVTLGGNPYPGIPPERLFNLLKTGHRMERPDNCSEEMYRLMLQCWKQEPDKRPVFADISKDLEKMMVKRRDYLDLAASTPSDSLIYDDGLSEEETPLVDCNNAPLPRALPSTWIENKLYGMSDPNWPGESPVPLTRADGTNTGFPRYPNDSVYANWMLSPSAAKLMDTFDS
# [23] = molecular target: Receptor-interacting serine/threonine-protein kinase 2 (Homo sapiens) (UniProt O43353); test: Inhibition of wild-type human partial length RIPK2 (M1 to K310 residues) expressed in bacterial expression system at 10 uM by Kinomescan method relative to control
# [24] = molecular target: Ribosomal protein S6 kinase alpha-3 (Homo sapiens) (UniProt P51812); test: Inhibition of wild-type human partial length N-terminal RSK2 kinase domain 1 (M1 to D394 residues) expressed in mammalian expression system at 10 uM by Kinomescan method relative to control
# [25] = molecular target: Ribosomal protein S6 kinase beta-1 (Homo sapiens) (UniProt P23443); test: Inhibition of wild-type human partial length S6K1 (M1 to S421 residues) expressed in mammalian expression system at 10 uM by Kinomescan method relative to control
# [26] = molecular target: STE20-like serine/threonine-protein kinase (Homo sapiens) (UniProt Q9H2G2); test: Inhibition of wild-type human partial length SLK (S14 to A307 residues) expressed in bacterial expression system at 10 uM by Kinomescan method relative to control
# [27] = molecular target: Serine/threonine-protein kinase TAO1 (Homo sapiens) (UniProt Q7L7X3); test: Inhibition of wild-type human partial length TAOK1 (M1 to A320 residues) expressed in mammalian expression system at 10 uM by Kinomescan method relative to control
smiles,measurement,setting,value
O=C(Nc1cccc([C@@H]2CN(c3ncnc4[nH]ccc34)CCN2CCO)c1)Nc1c(F)cccc1N1CCCC1,inhibition,[1],100%
same,inhibition,[2],99%
same,inhibition,[3],73%
same,inhibition,[4],100%
same,inhibition,[5],100%
same,inhibition,[6],100%
same,inhibition,[7],100%
same,inhibition,[8],4.6%
same,inhibition,[9],96%
same,inhibition,[10],40%
same,inhibition,[11],86%
same,inhibition,[12],86%
same,inhibition,[13],71%
same,inhibition,[14],75%
O=C(Nc1cccc([C@H]2CCCN(c3ncnc4[nH]ccc34)C2)c1)Nc1ccccc1N1CCCC1,inhibition,[15],82%
same,inhibition,[16],58%
same,inhibition,[17],83%
same,inhibition,[18],98%
same,inhibition,[19],3.6%
same,inhibition,[20],100%
same,inhibition,[21],88%
same,inhibition,[22],0.1%
same,inhibition,[23],100%
same,inhibition,[24],57%
same,inhibition,[25],23%
same,inhibition,[26],28%
same,inhibition,[27],62%

# — ChEMBL document CHEMBL4387741, “Optimization of novel reversible Bruton's tyrosine kinase inhibitors identified using Tethering-fragment-based screens” (Bioorg Med Chem, 2019)
